Laboratory results taken from patent US7452865B2, “Antagonistic analogs of GH RH (2003)” (The Administrare's of the Tulane Educational Fund, priority 2004, dated 2008).
Marks after values point to notes of the source that are not given here. Square brackets hold non-standard residues; d marks the D form. Peptide text beside a SMILES is read from it. * marks the point of attachment. Phe(4-Cl) = N[C@@H](Cc1ccc(Cl)cc1)C(=O)O; hArg = N=C(N)NCCCC[C@H](N)C(=O)O; Nle = CCCC[C@H](N)C(=O)O; Abu = CC[C@H](N)C(=O)O; PhAc = O=C(Cc1ccccc1)*

Experiments:
[1] = system: GH-RH receptor isoforms on membrane fractions of human PC-3 prostate tumors; assay type: binding; conditions: general statement
How it was run: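 Competitive displacement of [^125I]JV-1-42 from crude membranes of human PC-3 prostate tumours grown as nude-mouse xenografts, with unlabelled peptides at 10^−12 to 10^−6 M. Bound radioactivity in the centrifuged pellet gamma-counted; Ki from Munson–Rodbard analysis. Relative affinity = Ki of reference peptide (JV-1-36 or JV-1-38) / Ki of test antagonist.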

IGF-I [2] = test: PC-3 xenografts, Experiment 1: serum IGF-I (RIA); assay type: in vivo, nude mice; conditions: 10 μg/day s.c., 28 days
Text: (§1) For the measurement of GH and IGF-I levels in the serum, as well as IGF-I and IGF-II concentrations in the cytosol fraction of tumors, blood samples and tumor samples were collected and processed as described (Braczkowski R, Schally A V, Plonowski A, Varga J L, Groot K, Krupa M, Armatis P, Cancer 95: 1735-1745, 2002), hereby incorporated by reference. Briefly, blood samples are centrifuged to separate the serum, tumors are homogenized and centrifuged to separate the cytosol fraction. Serum GH is then measured by the double-antibody RIA method. Before measurement by RIA, IGF-I and IGF-II are extracted from serum and cytosol fractions using an acid-ethanol cryoprecipitation method that eliminates most of the IGF binding proteins, which can interfere with the RIA. IGF-I concentration is measured by RIA using IGF-I as a standard and goat anti-IGF-I antibody (both from DSL Inc., Webster, Tex.). IGF-II concentration is measured by RIA using human recombinant IGF-II (Bachem) as a standard and anti-IGF-II monoclonal antibody (Amano International Enzyme, Troy, Va.).
(§2) Male nude mice were implanted s.c. with 3 mm^3 pieces of PC-3 human hormone-independent prostate cancer tissue on both flanks. When tumors reached a volume of approx. 50 mm^3, the mice were divided into 5 experimental groups with 7 to 8 animals in each group and received single daily injections for 28 days as follows: 1. Control (vehicle solution); 2. JV-1-38 (10 μg/day s.c.); 3 Peptide 31 (10 μg/day s.c.); 4. Peptide 67 (10 μg/day s.c.); 5. Peptide 62 (10 μg/day s.c.). Tumor volumes were measured twice a week. The experiment was ended on day 29 by sacrificing the mice under Isoflurane anesthesia. Resulting tumors were cleaned, weighed, and snap-frozen until further analyses. Trunk blood was collected from the abdominal aorta and serum was separated for RIA measurement of IGF-I. Statistical analyses of the measurement results were done by two-tailed t-test; data are presented as the means±S.E.

[3] = system: hGH-RH(1-29)NH2 induced GH release; test: Inhibition of GH release in superfused rat pituitary system; assay type: cell-based; conditions: for GH response (% of control) 0 min / GH response (% of control) 30 min / GH response (% of control) 60 min / GH response (% of control) 90 min / GH response (% of control) 120 min: antagonist 30 nM; for GH response (% of control) 0 min: 1 nM hGH-RH(1-29)NH2 at 0 min; for GH response (% of control) 30 min: 1 nM hGH-RH(1-29)NH2 at 30 min; for GH response (% of control) 60 min: 1 nM hGH-RH(1-29)NH2 at 60 min; for GH response (% of control) 90 min: 1 nM hGH-RH(1-29)NH2 at 90 min; for GH response (% of control) 120 min: 1 nM hGH-RH(1-29)NH2 at 120 min
How it was run: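 Dispersed rat pituitary cells in superfusion were preincubated 9 min with analog at various concentrations, then stimulated with 1 nM hGH-RH(1-29)NH2 for 3 min, repeated at 30, 60, 90, 120 min to gauge duration. GH measured by double-antibody RIA; net integrated responses expressed as percent of the initial 1 nM GH-RH response.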

[4] = system: PC-3 human prostate cancer xenografts; test: PC-3 xenografts in nude mice, Experiment 1: tumor growth; assay type: in vivo
Procedure: as §2

[5] = system: PC-3 human prostate cancer xenografts; test: PC-3 xenografts in nude mice, Experiment 2: tumor growth; assay type: in vivo; conditions: for Tumor volume (mm^3) Initial: 5 μg/day groups, at start of treatment; for Tumor volume (mm^3) Final / Tumor volume doubling time / Tumor weight / Tumor volume Final (% inhibition) / Tumor weight (% inhibition): 5 μg/day s.c., 28 days; for Tumor volume Final (% inhibition) / Tumor weight (% inhibition): vs control
Procedure: as §2
(§3) Experiment 2 was similar to Experiment 1, with the difference that Experiment 2 was started when PC-3 tumors had grown to approximately 30 mm^3 in volume. At this time, the animals were divided into 8 experimental groups with 8 animals in each group, and received single daily injections for 28 days as follows. 1. Control (vehicle solution); 2. JV-1-38 (10 μg/day s.c.); 3. Peptide 46 (5 μg/day: s.c.); 4. Peptide 77 (5 μg/day s.c); 5. Peptide 76 (5 μg/day s.c.); 6. Peptide 70 (5 μg/day s.c.); 7 Peptide 79 (5 μg/day s.c.); 8. Peptide 80 (5 μg/day s.c.). Further details of Experiment 2 are the same as for Experiment 1.

IGF-I [6] = test: PC-3 xenografts, Experiment 2: serum IGF-I (RIA); assay type: in vivo, nude mice; conditions: 5 μg/day s.c., 28 days; for Serum IGF-I (% inhibition): vs control
Text: as §1, §2, §3

[7] = system: H-69 human SCLC xenografts; test: H-69 human SCLC xenografts in nude mice: tumor growth; assay type: in vivo
Procedure: Male nude mice were implanted s.c. with 3 mm^3 pieces of H-69 human SCLC tissue. When tumors reached a volume of approx. 80 mm^3 the mice were divided into 4 experimental groups of 7-8 animals each and received the following treatment for 4 weeks: group I (control), vehicle solution; group 2, Peptide 67 (10 μg/day s.c.); group 3, Peptide 31 (10 μg/day s.c.); group 4, Peptide 72 (10 μg/day s.c.). Tumor volumes were recorded twice a week. At the end of treatment, mice were anesthetized with isoflurane, killed by decapitation, and tumors were excised and weighed. Data are presented as means±S.E. Data were evaluated by one way ANOVA and the Student-Newman-Keuls test.

[8] = 10 μg/day s.c., 28 days, vs control

Compound	binding affinities to the tumoral receptors for GH-RH (in words) [1]	Tumor volume (mm^3) Initial [5] [mm^3]	Tumor volume (mm^3) Final [5]	Tumor volume doubling time [5] [days]	Tumor weight [5] [mg]	Tumor volume Final (% inhibition) [5]	Tumor weight (% inhibition) [5]	Serum IGF-I (IGF-I [6]) [ng/mL]	Serum IGF-I (% inhibition) (IGF-I [6]) [%]	further results
CCCC[C@H](NC(=O)[C@@H](NC(=O)[C@H](CC(=O)O)NC(=O)[C@H](CCC(N)=O)NC(=O)[C@H](CC(C)C)NC(=O)[C@H](CC(C)C)NC(=O)[C@H](CCCCN)NC(=O)[C@H](CCCNC(=N)N)NC(=O)[C@H](C)NC(=O)[C@H](CO)NC(=O)[C@H](CC(C)C)NC(=O)[C@H](CCC(N)=O)NC(=O)[C@H](CC)NC(=O)[C@H](CC(C)C)NC(=O)[C@@H](NC(=O)[C@H](CCCCN)NC(=O)[C@H](Cc1c[nH]cn1)NC(=O)[C@H](Cc1ccc(OC)cc1)NC(=O)[C@H](CCCCNC(=N)N)NC(=O)[C@H](CC(N)=O)NC(=O)[C@@H](NC(=O)[C@H](Cc1ccc(Cl)cc1)NC(=O)[C@@H](NC(=O)[C@H](C)NC(=O)[C@H](CC(=O)O)NC(=O)[C@@H](CCCNC(=N)N)NC(=O)[C@H](Cc1ccc(O)cc1)NC(=O)Cc1ccccc1)[C@@H](C)CC)[C@@H](C)O)C(C)C)[C@@H](C)CC)C(=O)N[C@H](CCCNC(=N)N)C(=O)N[C@@H](CCCCNC(=N)N)C(N)=O [Peptide 62, [PhAc-Tyr^1, D-Arg^2, Phe(pCl)^6, Har^9, Tyr(Me)^10, His^11, Abu^15, Nle^27, D-Arg^28, Har^29]hGH-RH(1-29)NH2] (PhAc-Y[dR]DAI[Phe(4-Cl)]TN[hArg]Y(Me)HKVL[Abu]QLSARKLLQDI[Nle][dR][hArg]-NH2)	extremely high binding affinities	–	–	–	–	–	–	–	–	Serum IGF-I (IGF-I [2]): 141 ± 8.86 ng/mL; Serum IGF-I (% inhibition) (IGF-I [2]; vs control): (5%); GH response (% of control) 0 min [3]: 20 % of control; GH response (% of control) 30 min [3]: 16 % of control; GH response (% of control) 60 min [3]: 14 % of control; GH response (% of control) 90 min [3]: 21 % of control; GH response (% of control) 120 min [3]: 21 % of control; endocrine antagonistic potency: inhibition of the GH release stimulated by hGH-RH(1-29)NH2 (in words) ([3]; general statement, in vitro and in vivo): high endocrine antagonistic potencies; Tumor volume (mm^3) Final ([4]; 10 μg/day s.c., 28 days): 215 ± 50.4 mm^3; Tumor volume doubling time ([4]; 10 μg/day s.c., 28 days): 18.4 ± 4.96 days; Tumor volume Final (% inhibition) [4, 8]: (57%); Tumor weight (% inhibition) [4, 8]: (47%); inhibitory effect on the growth of PC-3 tumors (in words) ([4]; 10 μg/day s.c., compared with JV-1-38): stronger inhibitory effect on the growth of PC-3 tumors than the reference peptide JV-1-38; Tumor volume (mm^3) Initial ([4]; at start of treatment): 56.1 ± 18.2 mm^3
[CH3(CH2)6CO-Tyr^1, D-Arg^2, Phe(pCl)^6, Cit^8, His^9, Tyr(Et)^10, His^11, Abu^15, Nle^27, D-Arg^28, Har^29]hGH-RH(1-29)NH2 [Peptide 79]	extremely high binding affinities	29.1 ± 4.3	139 ± 49.4*# mm^3	13.6 ± 1.8	153 ± 54.5	(60%)	(46%)	181 ± 19.8	31	–
[PhAc-Tyr^1, D-Arg^2, Phe(pCl)^6, Har^9, Tyr(Me)^10, Abu^15, Nle^27, D-Arg^28, Har^29]hGH-RH(1-29)NHEt [Peptide 46]	–	26.6 ± 2.7	246 ± 93.7 mm^3	11.2 ± 1.3	188 ± 66.1	(30%)	(34%)	288 ± 17.9	0	GH response (% of control) 0 min [3]: 91 % of control; GH response (% of control) 30 min [3]: 28 % of control; GH response (% of control) 60 min [3]: 31 % of control; GH response (% of control) 90 min [3]: 56 % of control; GH response (% of control) 120 min [3]: 30 % of control

The next lines start with results.

binding affinities to the tumoral receptors for GH-RH (in words) [1]	Compound	Tumor volume (mm^3) Initial [5] [mm^3]	Tumor volume (mm^3) Final [5]	Tumor volume doubling time [5] [days]	Tumor weight [5] [mg]	Tumor volume Final (% inhibition) [5]	Tumor weight (% inhibition) [5]	Serum IGF-I (IGF-I [6]) [ng/mL]	Serum IGF-I (% inhibition) (IGF-I [6]) [%]	further results
extremely high binding affinities	[CH3(CH2)6CO-Tyr^1, D-Arg^2, Phe(pCl)^6, Amp^9, Tyr(Me)^10, Abu^15, Nle^27, D-Arg^28, Har^29]hGH-RH(1-29)NH2 [Peptide 70]	26.5 ± 3.7	199 ± 40.4*# mm^3	12.6 ± 2.5	119 ± 25.3	(43%)	(58%)	175 ± 12.9	33	–
extremely high binding affinities	[CH3(CH2)6CO-Tyr^1, D-Arg^2, Phe(pCl)^6, Cit^8, Amp^9, Tyr(Me)^10, His^11, Abu^15, Nle^27, D-Arg^28, Har^29]hGH-RH(1-29)NH2 [Peptide 76]	26.8 ± 3.4	232 ± 30.8 mm^3	9.4 ± 0.6	226 ± 48.3	(34%)	(20%)	260 ± 29.7	1	–
extremely high binding affinities	[HOOC(CH2)12CO-Tyr^1, D-Arg^2, Phe(pCl)^6, Amp^9, Tyr(Me)^10, Abu^15, Nle^27, D-Arg^28, Har^29]hGH-RH(1-29)NH2 [Peptide 72]	–	–	–	–	–	–	–	–	antiproliferative effect on H-69 tumors (in words) ([7]; 10 μg/day, single daily injections): strongest antiproliferative effect; Tumor volume (mm^3) Final ([7]; H-69, 10 μg/day s.c., 4 weeks): 308 ± 23* mm^3; Tumor volume Final (% inhibition) ([7]; H-69, 10 μg/day s.c., 4 weeks, vs control): (90%); Tumor volume (mm^3) Initial ([7]; H-69, at start of treatment): 81 ± 9 mm^3
extremely high binding affinities	[HOOC(CH2)12CO-Tyr^1, D-Arg^2, Phe(pCl)^6, Cit^8, Amp^9, Tyr(Me)^10, His^11, Abu^15, Nle^27, D-Arg^28, Har^29]hGH-RH(1-29)NH2 [Peptide 77]	27.2 ± 3.2	192 ± 44.1 mm^3	10.7 ± 0.8	138 ± 34.3	(45%)	(51%)	276 ± 16.8	0	–
